Key:
HeLa S3 cells = assay: Cellular deacetylase assay with Fluor de Lys substrate; type: cell-based, human; settings: 1 μM TSA
Method: FdL (200 μM) is added to growth media and cells are incubated for 1-3 hours to allow FdL to enter the cells and the lysine-deacetylated product (deAc-FdL) to accumulate intracellularly. Cells are lysed with detergent in the presence of 1 μM TSA and 1 mM nicotinamide. Addition of the non-cell-permeable Developer (BIOMOL) releases a fluorophor, specifically from deAc-FdL. […] Cells were grown adherently in DMEM/10% FCS and treated for 1 hour with 200 μM FdL, 1 μM TSA and either vehicle (0.5% final DMSO, Control) or 500 μM of the indicated compound. Intracellular accumulation of deAc-FdL was then determined as described briefly in FIG. 4a. […] Lysates were prepared and analyzed by Western blot as in FIG. 4c. […] Lysates were prepared and analyzed as above.
FIG. 6a through 6c show intracellular deacetylation activity measured with a cell-permeable, fluorogenic HDAC and sirtuin substrate. […] Intracellular and medium levels of deacetylated substrate (deAc-FdL) were determined according to the manufacturer's instructions (HDAC assay kit, BIOMOL). […]
Themed compound libraries (BIOMOL) were used for primary and secondary screening. […] HeLa cells were grown and the cellular deacetylation assays were performed and read, as above, but in full-volume 96-well microplates (Corning Costar 3595). […]

recombinant human SIRT1 = biological target: T1, recombinant human SIRT1 (Homo sapiens, UniProt Q96EB6); assay: SIRT1 fluorescent deacetylation assay (p53-382 acetylated peptide substrate); type: biochemical; settings: 25 μM NAD+, 25 μM p53-382 acetylated peptide
T1 sequence (Q96EB6 1-747): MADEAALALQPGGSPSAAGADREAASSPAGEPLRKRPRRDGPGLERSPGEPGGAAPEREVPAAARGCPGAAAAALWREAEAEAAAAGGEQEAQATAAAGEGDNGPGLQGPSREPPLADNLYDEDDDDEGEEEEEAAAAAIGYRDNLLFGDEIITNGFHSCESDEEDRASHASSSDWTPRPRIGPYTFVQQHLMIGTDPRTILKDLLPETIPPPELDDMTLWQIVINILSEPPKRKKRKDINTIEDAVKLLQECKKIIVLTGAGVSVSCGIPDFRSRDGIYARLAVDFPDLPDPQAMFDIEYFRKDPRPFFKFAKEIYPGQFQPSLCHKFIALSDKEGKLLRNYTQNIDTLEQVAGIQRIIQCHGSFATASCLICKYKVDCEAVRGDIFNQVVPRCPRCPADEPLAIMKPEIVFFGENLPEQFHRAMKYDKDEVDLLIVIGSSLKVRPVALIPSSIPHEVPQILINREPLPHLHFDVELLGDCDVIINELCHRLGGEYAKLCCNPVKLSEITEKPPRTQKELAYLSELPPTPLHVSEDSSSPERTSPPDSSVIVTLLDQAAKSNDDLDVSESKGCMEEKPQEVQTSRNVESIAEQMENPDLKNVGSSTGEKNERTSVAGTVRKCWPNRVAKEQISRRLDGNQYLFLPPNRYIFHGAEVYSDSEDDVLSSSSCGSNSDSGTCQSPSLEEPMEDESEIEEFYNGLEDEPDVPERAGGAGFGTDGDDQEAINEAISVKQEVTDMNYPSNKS

S. cerevisiae = assay: Yeast replicative lifespan; type: cell-based; settings: 10 μM, wild type
Method: Average lifespan was determined for wild type untreated (□), quercetin (◯) and piceatannol (●).

| Structure (SMILES) | Signal insensitive to trichostatin A (HeLa S3 cells; HeLa cells growing adherently) | Ratio to Control Rate Mean ± SE (recombinant human SIRT1; Supplementary Table 1, stilbenes and chalcones, 100 μM) | Ratio to Control Rate Mean ± SE (recombinant human SIRT1; Table 1, 100 μM compound) | Effect on maximum lifespan (S. cerevisiae) | Increase of average lifespan (S. cerevisiae) | TSA-insensitive cellular deacetylation signal (HeLa S3 cells; 500 μM compound, 200 μM FdL, 1 hour) |
| --- | --- | --- | --- | --- | --- | --- |
| CC(/C=C/C(=O)NO)=C\[C@@H](C)C(=O)c1ccc(N(C)C)cc1 [trichostatin A, reference compound] | 5-10% | – | – | – | – | – |
| O=C(/C=C/c1ccc(O)c(O)c1)c1ccc(O)cc1O [Butein, 3,4,2′,4′-Tetrahydroxychalcone] | – | 8.53 ± 0.89 | 8.53 ± 0.89 | significantly increased | 31% | no effect |

From patent US20060084135A1, “Compositions for manipulating the lifespan and stress response of cells and organisms” (priority 2003, published 2006)
